# Numbers after ± are expanded uncertainties.
# Assay: xn = mol fraction of the nth substance listed
# Settings: 101.3 kPa, Liquid
smiles,measurement,setting,value
"Cc1ccc(C)cc1 [1,4-dimethylbenzene] + C[S+](C)[O-]",mass density,"293.15 K, x1 = 0.0599",1077 ± 0.31 kg/m3
same,mass density,"293.15 K, x1 = 0.1284",1052.94 ± 0.29 kg/m3
same,mass density,"293.15 K, x1 = 0.1944",1031.59 ± 0.29 kg/m3
same,mass density,"293.15 K, x1 = 0.2783",1006.68 ± 0.28 kg/m3
same,mass density,"293.15 K, x1 = 0.3589",984.83 ± 0.31 kg/m3
same,mass density,"293.15 K, x1 = 0.4385",965.03 ± 0.34 kg/m3
same,mass density,"293.15 K, x1 = 0.5032",950.09 ± 0.37 kg/m3
same,mass density,"293.15 K, x1 = 0.5539",939.03 ± 0.39 kg/m3
same,mass density,"293.15 K, x1 = 0.6235",924.72 ± 0.42 kg/m3
same,mass density,"293.15 K, x1 = 0.7023",909.62 ± 0.45 kg/m3
same,mass density,"293.15 K, x1 = 0.7635",898.63 ± 0.47 kg/m3
same,mass density,"293.15 K, x1 = 0.8243",888.27 ± 0.49 kg/m3
same,mass density,"293.15 K, x1 = 0.8831",878.73 ± 0.51 kg/m3
same,mass density,"293.15 K, x1 = 0.9327",871.04 ± 0.53 kg/m3
same,mass density,"303.15 K, x1 = 0.0632",1067.37 ± 0.29 kg/m3
same,mass density,"303.15 K, x1 = 0.1639",1032.58 ± 0.28 kg/m3
same,mass density,"303.15 K, x1 = 0.2343",1010.65 ± 0.27 kg/m3
same,mass density,"303.15 K, x1 = 0.2934",993.59 ± 0.29 kg/m3
same,mass density,"303.15 K, x1 = 0.3513",977.92 ± 0.31 kg/m3
same,mass density,"303.15 K, x1 = 0.425",959.33 ± 0.34 kg/m3
same,mass density,"303.15 K, x1 = 0.4892",944.29 ± 0.37 kg/m3
same,mass density,"303.15 K, x1 = 0.5633",928.09 ± 0.4 kg/m3
same,mass density,"303.15 K, x1 = 0.6398",912.58 ± 0.43 kg/m3
same,mass density,"303.15 K, x1 = 0.7135",898.68 ± 0.46 kg/m3
same,mass density,"303.15 K, x1 = 0.7624",889.95 ± 0.48 kg/m3
same,mass density,"303.15 K, x1 = 0.8243",879.44 ± 0.5 kg/m3
same,mass density,"303.15 K, x1 = 0.8609",873.48 ± 0.51 kg/m3
same,mass density,"303.15 K, x1 = 0.9244",863.55 ± 0.53 kg/m3
same,mass density,"313.15 K, x1 = 0.0662",1057.67 ± 0.28 kg/m3
same,mass density,"313.15 K, x1 = 0.1358",1033.11 ± 0.27 kg/m3
same,mass density,"313.15 K, x1 = 0.1942",1014.07 ± 0.27 kg/m3
same,mass density,"313.15 K, x1 = 0.2578",994.8 ± 0.27 kg/m3
same,mass density,"313.15 K, x1 = 0.3249",975.96 ± 0.31 kg/m3
same,mass density,"313.15 K, x1 = 0.3895",959.1 ± 0.33 kg/m3
same,mass density,"313.15 K, x1 = 0.4509",944.13 ± 0.36 kg/m3
same,mass density,"313.15 K, x1 = 0.5345",925.24 ± 0.4 kg/m3
same,mass density,"313.15 K, x1 = 0.6106",909.4 ± 0.43 kg/m3
same,mass density,"313.15 K, x1 = 0.6719",897.46 ± 0.45 kg/m3
same,mass density,"313.15 K, x1 = 0.754",882.52 ± 0.48 kg/m3
same,mass density,"313.15 K, x1 = 0.8358",868.7 ± 0.51 kg/m3
same,mass density,"313.15 K, x1 = 0.9235",854.92 ± 0.54 kg/m3
same,mass density,"323.15 K, x1 = 0.0573",1052.39 ± 0.27 kg/m3
same,mass density,"323.15 K, x1 = 0.1537",1018.34 ± 0.26 kg/m3
same,mass density,"323.15 K, x1 = 0.2359",992.38 ± 0.27 kg/m3
same,mass density,"323.15 K, x1 = 0.3131",970.2 ± 0.31 kg/m3
same,mass density,"323.15 K, x1 = 0.383",951.75 ± 0.34 kg/m3
same,mass density,"323.15 K, x1 = 0.4509",935.12 ± 0.37 kg/m3
same,mass density,"323.15 K, x1 = 0.5234",918.67 ± 0.4 kg/m3
same,mass density,"323.15 K, x1 = 0.5902",904.55 ± 0.42 kg/m3
same,mass density,"323.15 K, x1 = 0.6618",890.43 ± 0.45 kg/m3
same,mass density,"323.15 K, x1 = 0.7385",876.35 ± 0.48 kg/m3
same,mass density,"323.15 K, x1 = 0.8123",863.72 ± 0.51 kg/m3
same,mass density,"323.15 K, x1 = 0.8832",852.33 ± 0.53 kg/m3
same,mass density,"323.15 K, x1 = 0.9321",844.86 ± 0.55 kg/m3
same,mass density,"333.15 K, x1 = 0.0529",1045.49 ± 0.26 kg/m3
same,mass density,"333.15 K, x1 = 0.1248",1019.37 ± 0.25 kg/m3
same,mass density,"333.15 K, x1 = 0.1944",996.31 ± 0.25 kg/m3
same,mass density,"333.15 K, x1 = 0.265",974.86 ± 0.29 kg/m3
same,mass density,"333.15 K, x1 = 0.3398",954.01 ± 0.32 kg/m3
same,mass density,"333.15 K, x1 = 0.4014",938.13 ± 0.35 kg/m3
same,mass density,"333.15 K, x1 = 0.4624",923.43 ± 0.38 kg/m3
same,mass density,"333.15 K, x1 = 0.5137",911.8 ± 0.4 kg/m3
same,mass density,"333.15 K, x1 = 0.5823",897.2 ± 0.43 kg/m3
same,mass density,"333.15 K, x1 = 0.6582",882.18 ± 0.46 kg/m3
same,mass density,"333.15 K, x1 = 0.731",868.78 ± 0.48 kg/m3
same,mass density,"333.15 K, x1 = 0.8043",856.2 ± 0.51 kg/m3
same,mass density,"333.15 K, x1 = 0.8638",846.57 ± 0.53 kg/m3
same,mass density,"333.15 K, x1 = 0.9247",837.2 ± 0.55 kg/m3
same,mass density,"343.15 K, x1 = 0.0638",1032.77 ± 0.25 kg/m3
same,mass density,"343.15 K, x1 = 0.1398",1005.47 ± 0.24 kg/m3
same,mass density,"343.15 K, x1 = 0.2012",985.32 ± 0.26 kg/m3
same,mass density,"343.15 K, x1 = 0.275",963.03 ± 0.3 kg/m3
same,mass density,"343.15 K, x1 = 0.351",942.07 ± 0.34 kg/m3
same,mass density,"343.15 K, x1 = 0.4132",926.22 ± 0.36 kg/m3
same,mass density,"343.15 K, x1 = 0.4891",908.31 ± 0.4 kg/m3
same,mass density,"343.15 K, x1 = 0.5409",896.9 ± 0.42 kg/m3
same,mass density,"343.15 K, x1 = 0.6148",881.67 ± 0.45 kg/m3
same,mass density,"343.15 K, x1 = 0.6728",870.48 ± 0.47 kg/m3
same,mass density,"343.15 K, x1 = 0.7322",859.68 ± 0.49 kg/m3
same,mass density,"343.15 K, x1 = 0.813",845.91 ± 0.52 kg/m3
same,mass density,"343.15 K, x1 = 0.8732",836.29 ± 0.54 kg/m3
same,mass density,"343.15 K, x1 = 0.9322",827.33 ± 0.56 kg/m3
same,mass density,"353.15 K, x1 = 0.0609",1025.3 ± 0.24 kg/m3
same,mass density,"353.15 K, x1 = 0.1428",995.69 ± 0.24 kg/m3
same,mass density,"353.15 K, x1 = 0.218",971.2 ± 0.28 kg/m3
same,mass density,"353.15 K, x1 = 0.2843",951.45 ± 0.31 kg/m3
same,mass density,"353.15 K, x1 = 0.3598",930.79 ± 0.35 kg/m3
same,mass density,"353.15 K, x1 = 0.4241",914.57 ± 0.38 kg/m3
same,mass density,"353.15 K, x1 = 0.481",901.17 ± 0.4 kg/m3
same,mass density,"353.15 K, x1 = 0.5393",888.27 ± 0.43 kg/m3
same,mass density,"353.15 K, x1 = 0.6042",874.83 ± 0.45 kg/m3
same,mass density,"353.15 K, x1 = 0.6629",863.42 ± 0.47 kg/m3
same,mass density,"353.15 K, x1 = 0.7321",850.8 ± 0.5 kg/m3
same,mass density,"353.15 K, x1 = 0.7832",842 ± 0.52 kg/m3
same,mass density,"353.15 K, x1 = 0.833",833.83 ± 0.53 kg/m3
same,mass density,"353.15 K, x1 = 0.9128",821.46 ± 0.56 kg/m3

# Reference: the NIST ThermoML archive (doi:10.1016/j.jct.2004.04.004)
